Test results taken from patent US10265298B2, “Method of increasing the bioavailability of silybin” (Macau University of Science and Technology, priority 2017, dated 2019).

Legend:
BCRP = molecular target: T1, BCRP (Homo sapiens, UniProt Q9UNQ0); test: Inhibition of pheophorbide A (Ph A) efflux in MDCKII-BCRP cell monolayers; details: for mean efflux ratio of Ph A in the presence of inhibitor: dog, 180 min
T1 sequence (Q9UNQ0 1-655): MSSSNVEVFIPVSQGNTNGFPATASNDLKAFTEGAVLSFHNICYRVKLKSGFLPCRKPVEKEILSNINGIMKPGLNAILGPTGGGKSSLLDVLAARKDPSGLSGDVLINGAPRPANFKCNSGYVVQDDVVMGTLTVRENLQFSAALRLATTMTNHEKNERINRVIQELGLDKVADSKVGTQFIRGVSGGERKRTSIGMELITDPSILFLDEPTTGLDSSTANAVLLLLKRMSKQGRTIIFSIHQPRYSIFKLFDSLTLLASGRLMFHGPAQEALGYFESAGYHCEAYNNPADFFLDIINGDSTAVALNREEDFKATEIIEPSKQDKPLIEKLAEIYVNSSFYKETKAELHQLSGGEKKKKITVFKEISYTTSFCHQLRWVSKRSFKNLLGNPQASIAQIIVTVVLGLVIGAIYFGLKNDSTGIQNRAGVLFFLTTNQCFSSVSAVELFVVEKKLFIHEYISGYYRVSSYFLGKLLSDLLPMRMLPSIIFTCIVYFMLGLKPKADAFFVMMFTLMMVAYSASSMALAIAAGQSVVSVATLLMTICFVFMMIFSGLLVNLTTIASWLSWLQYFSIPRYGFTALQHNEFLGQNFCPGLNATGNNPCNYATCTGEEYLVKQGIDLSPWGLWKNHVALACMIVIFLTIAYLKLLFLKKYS
Procedure: Parental Madin-Darby canine kidney II (MDCKII), multi-drug resistance gene 1-Madin-Darby canine kidney II (MDR1-MDCKII), breast cancer resistance protein-Madin-Darby canine kidney II (BCRP-MDCKII), and multi-drug resistance protein 2-Madin-Darby canine kidney II (MRP2-MDCKII) cells were kindly provided by the Netherlands Cancer Institute (Amsterdam, Netherlands) and frozen at −80° C. The MDCKII cells were cultured at 37° C./5% CO2 in Dulbecco's modified Eagle's medium supplemented with 10% fetal bovine serum, 1% nonessential amino acids, and 2% penicillin-streptomycin. The cells were seeded on transwell inserts (Corning Inc.) at a density of 2.0×10^5 cells/cm^2 and grown for 4-5 days to form confluent monolayers.
Bidirectional transport assays in human colorectal adenocarcinoma 2 (Caco-2) and Madin-Darby canine kidney II (MDCK II) was carried out by dosing substrates in assay buffer to either the apical chamber (A-to-B) or the basolateral chamber (B-to-A); cells were then incubated at 37° C. with shaking at 50 rotations per minute (rpm), and 100 μl samples were collected at 30, 60, 90, 120 and 180 minutes from the basolateral chamber to study the drug transport of AP to BL, or apical chamber to study the drug transport of BL to AP. Cell monolayers were then washed twice with ice-cold assay buffer and lysed with methanol on ice for 10 minutes. For inhibition studies, Caco-2 or MDCK II cell monolayers were pre-incubated with an inhibitor in both apical and basolateral chambers for 30 minutes, and bidirectional transport of 10 μM silybin was conducted in the absence (control) or presence of the inhibitor in both chambers. […] For fluorescence intensity detection, samples collected from AP or BL side were immediately detected in 96 well black plate by Microplate ultraviolet-visible spectroscopy (UV/VIS) spectrophotometer (TECAN infinite M200 PRO, Männedorf, Switzerland). In all cases, each determination was performed in triplicate.
The apparent permeability coefficients (Papp) were calculated as Papp=dQ/dt×1/(C“0”A) where dQ/dt (mM/sec) is the rate of permeation of the drug across the cells, C0 (millimolar (mM)) is the donor compartment concentration at time zero and A (cm^2) is the area of the cell monolayer. C0 is obtained from analysis of the dosing solution at the start experiment. Efflux Ratio (ER)=Papp (B to A)/Papp (A to B), while Papp (B−A) is the Papp value measured in the B to A direction, and Papp (A−B) is the Papp value measured in the A to B direction. 1.5 Preparation of Rat Sandwich-Cultured Hepatocytes
(§1) (*, P<0.05;**, P<0.01; ***, P<0.001 vs absence of any inhibitor. n=3).
as §1

[1] = after oral administration; cited from earlier work
[2] = test system: CCl4-induced acute liver injury; test: CCl4-induced acute liver injury in rats; assay type: in vivo, rat
Procedure: Male SD rats were randomly divided into six groups: 1) Group I orally received blank vehicle for 7 days, and intraperitoneally (i.p.) injected with olive oil (2 ml/kg body weight) on day 7; 2) Group II orally received blank vehicle for 7 days, and injected with CCl4-olive oil mixture (40% CCl4, i.p., 2 ml/kg body weight) on day 7; 3) Group III was treated with silybin (100 mg/kg bodyweight, per os (p.o.) for 7 days, and injected with CCl4-olive oil mixture (40% CCl4, i.p., 2 ml/kg body weight) on day 7, 2 hour after administration of silybin; 4) Group IV was treated with silybin (100 mg/kg bodyweight, p.o.) and tangeretin (100 mg/kg bodyweight, p.o.) mixture for 7 days, and injected with CCl4-olive oil mixture (40% CCl4, i.p., 2 ml/kg body weight) on day 7, 2 hour after administration of the mixture; 5) Group V was treated with silybin (50 mg/kg bodyweight, p.o.) and tangeretin (50 mg/kg bodyweight, p.o.) mixture for 7 days, and injected with CCl4-olive oil mixture (40% CCl4, i.p., 2 ml/kg body weight) on day 7, 2 hour after administration of the mixture; 6) Group VI was treated with tangeretin (100 mg/kg bodyweight, p.o.) for 7 days, and injected with CCl4-olive oil mixture (40%, i.p., 2 ml/kg body weight) on day 7, 2 hour after administration of tangeretin. Model and control group were daily treated orally with blank solvent (35% PEG400: 15% Cremophor EL: 5% ethanol: 45% saline).
24 hours after the CCl4-induced toxic liver injury was initiated, rats were sacrificed under ether anesthesia. Blood was collected from the abdominal aorta for biochemical estimations. The liver was immediately removed and weighed. A large portion of the liver was snap-frozen in the liquid nitrogen and the remaining tissue was fixed in 10% buffer formalin, processed and embedded in paraffin for histological examination after hematoxylin and eosin (H&E) staining. Steatohepatitis was evaluated by level of alanine aminotransferase (ALT), aspartate aminotransferase (AST), triglycerides, total cholesterol and superoxide dismutase (SOD) using commercial kits (Nanjing Jiancheng Bioengineering Institute, Nanjing, China) according to manufacturer's instructions and histological assessment and scoring according to standardized criteria by a pathologist blind to the study.

| Structure (SMILES) | IC50 (BCRP) | mean efflux ratio of Ph A in the presence of inhibitor (BCRP) | share metabolized to glucuronide conjugates in human plasma [1] | share metabolized to sulfate conjugates in human plasma [1] | serum TG and TC levels ([2]; 100 mg/kg of silybin, p<0.01) | CCl4-induced macroscopic and histopathological liver changes (H&E) ([2]; 7 days oral pre-treatment, 24 hours after CCl4) | CCl4-induced increase of liver weight and liver to body weight ratio ([2]; 7 days oral pre-treatment, 24 hours after CCl4, p<0.05) | CCl4-induced increase of serum activity of ALT and AST ([2]; silybin 100 mg/kg for seven consecutive days) |
| --- | --- | --- | --- | --- | --- | --- | --- | --- |
| COc1ccc(-c2cc(=O)c3c(OC)c(OC)c(OC)c(OC)c3o2)cc1 [tangeretin] | 8.88 µM | 1.18 | – | – | – | – | – | – |
| COc1cc(C2Oc3cc([C@H]4Oc5cc(O)cc(O)c5C(=O)[C@@H]4O)ccc3OC2CO)ccc1O (stereo partly shown) [silybin] | – | – | about 55% | about 28% | attenuated increases | less prominent | negated | significantly prevented |
| O=c1cc(-c2ccccc2)oc2cc(O)c(O)c(O)c12 [baicalein] | 22.1 µM | 1.48 | – | – | – | – | – | – |
